# Experimental data published in ChEMBL document CHEMBL1201862, “PubChem BioAssay data set” (2004).
# Activity calls are given as the source filed them.
# How the values were obtained:
# [1] = target: Voltage-gated N-type calcium channel alpha-1B subunit/Amyloid beta A4 precursor protein-binding family A member 1 (Homo sapiens, UniProt Q00975+Q02410); assay: disruptors of Mint-PDZ/N-type channel peptide interaction – biochemical, HTRF, set 2, SAR follow-up (AID 434980); format: functional
# [2] = target: X-box-binding protein 1 (Homo sapiens, UniProt P17861); format: functional, Cricetulus griseus;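 note: confirmatory dose-response counter-screen serving a CHOP assay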
# [3] = growth suppression of PTEN-null colon cells, dose response, cell-based, HCT116 PTEN knockout (AID 1047); format: functional;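 note: HCT116 colon tumor cells with PTEN knocked out; cells exposed to compound for 60 hours before readout; potency for loss of cell viability measured by luminescence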
# [4] = growth suppression of beta-catenin-knockout colon cells, dose response, cell-based, HCT116, human colon tumor (AID 1045); format: functional;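 note: HCT116 colon tumor cells with beta catenin knocked out; cells exposed to compound for 60 hours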
# [5] = target: Cytochrome P450 2D6 (Homo sapiens, UniProt P10635); assay: qHTS Assay for Inhibitors and Substrates of Cytochrome P450 2D6. [Related pubchem assays: 410 ]; format: ADME; settings: read-out: Potency
# [6] = target: Cytochrome P450 2C9 (Homo sapiens, UniProt P11712); settings: Potency
# [7] = HEp-2 cell cytotoxicity, dose response, cytotoxicity control for RSV inhibitor project, HTS (AID 2410); format: functional; settings: human respiratory syncytial virus
# [8] = target: Caspase-7 (Homo sapiens, UniProt P55210); assay: procaspase-7 activators, dose response, dual procaspase-3/-7 activator project, biochemical, absorbance, human (AID 504330)
# [9] = target: T1, Caspase-3 (Homo sapiens, UniProt P42574); assay: procaspase-3 activation potency of dual hits, dose response, counter-screen for dual procaspase-3/7 activator project, biochemical, absorbance, PC-3 D3A mutant (AID 504328)
# T1 sequence (P42574 whole entry): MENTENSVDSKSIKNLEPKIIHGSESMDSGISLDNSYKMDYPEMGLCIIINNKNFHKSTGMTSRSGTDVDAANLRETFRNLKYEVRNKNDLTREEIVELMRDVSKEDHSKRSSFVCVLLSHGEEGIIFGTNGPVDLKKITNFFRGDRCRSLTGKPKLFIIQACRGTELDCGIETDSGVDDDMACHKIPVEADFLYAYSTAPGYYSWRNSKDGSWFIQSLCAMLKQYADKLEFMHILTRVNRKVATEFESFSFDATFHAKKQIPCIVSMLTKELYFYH
# Sequence of Cytochrome P450 2D6 (P10635 whole entry): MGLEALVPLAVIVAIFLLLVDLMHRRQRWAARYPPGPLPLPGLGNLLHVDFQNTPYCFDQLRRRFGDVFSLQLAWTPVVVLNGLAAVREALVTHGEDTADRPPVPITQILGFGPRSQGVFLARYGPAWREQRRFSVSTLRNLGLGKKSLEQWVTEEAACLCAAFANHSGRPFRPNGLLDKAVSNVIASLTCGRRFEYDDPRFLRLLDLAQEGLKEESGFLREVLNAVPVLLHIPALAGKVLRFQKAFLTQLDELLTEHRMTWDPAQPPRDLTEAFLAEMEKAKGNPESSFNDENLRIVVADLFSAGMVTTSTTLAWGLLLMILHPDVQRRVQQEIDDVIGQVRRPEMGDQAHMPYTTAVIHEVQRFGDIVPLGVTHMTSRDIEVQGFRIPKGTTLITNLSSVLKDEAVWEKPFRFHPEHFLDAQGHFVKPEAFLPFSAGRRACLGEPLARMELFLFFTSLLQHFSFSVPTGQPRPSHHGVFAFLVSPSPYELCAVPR
# Sequence of X-box-binding protein 1 (P17861 whole entry): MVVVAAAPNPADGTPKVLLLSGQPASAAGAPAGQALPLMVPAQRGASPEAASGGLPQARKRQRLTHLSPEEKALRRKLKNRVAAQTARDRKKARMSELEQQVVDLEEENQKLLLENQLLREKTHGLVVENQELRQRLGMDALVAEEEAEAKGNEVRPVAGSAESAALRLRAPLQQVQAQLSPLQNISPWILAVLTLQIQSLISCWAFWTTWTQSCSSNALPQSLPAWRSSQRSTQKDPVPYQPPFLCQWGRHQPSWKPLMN
# Sequence of Voltage-gated N-type calcium channel alpha-1B subunit/Amyloid beta A4 precursor protein-binding family A member 1 (Q00975 whole entry): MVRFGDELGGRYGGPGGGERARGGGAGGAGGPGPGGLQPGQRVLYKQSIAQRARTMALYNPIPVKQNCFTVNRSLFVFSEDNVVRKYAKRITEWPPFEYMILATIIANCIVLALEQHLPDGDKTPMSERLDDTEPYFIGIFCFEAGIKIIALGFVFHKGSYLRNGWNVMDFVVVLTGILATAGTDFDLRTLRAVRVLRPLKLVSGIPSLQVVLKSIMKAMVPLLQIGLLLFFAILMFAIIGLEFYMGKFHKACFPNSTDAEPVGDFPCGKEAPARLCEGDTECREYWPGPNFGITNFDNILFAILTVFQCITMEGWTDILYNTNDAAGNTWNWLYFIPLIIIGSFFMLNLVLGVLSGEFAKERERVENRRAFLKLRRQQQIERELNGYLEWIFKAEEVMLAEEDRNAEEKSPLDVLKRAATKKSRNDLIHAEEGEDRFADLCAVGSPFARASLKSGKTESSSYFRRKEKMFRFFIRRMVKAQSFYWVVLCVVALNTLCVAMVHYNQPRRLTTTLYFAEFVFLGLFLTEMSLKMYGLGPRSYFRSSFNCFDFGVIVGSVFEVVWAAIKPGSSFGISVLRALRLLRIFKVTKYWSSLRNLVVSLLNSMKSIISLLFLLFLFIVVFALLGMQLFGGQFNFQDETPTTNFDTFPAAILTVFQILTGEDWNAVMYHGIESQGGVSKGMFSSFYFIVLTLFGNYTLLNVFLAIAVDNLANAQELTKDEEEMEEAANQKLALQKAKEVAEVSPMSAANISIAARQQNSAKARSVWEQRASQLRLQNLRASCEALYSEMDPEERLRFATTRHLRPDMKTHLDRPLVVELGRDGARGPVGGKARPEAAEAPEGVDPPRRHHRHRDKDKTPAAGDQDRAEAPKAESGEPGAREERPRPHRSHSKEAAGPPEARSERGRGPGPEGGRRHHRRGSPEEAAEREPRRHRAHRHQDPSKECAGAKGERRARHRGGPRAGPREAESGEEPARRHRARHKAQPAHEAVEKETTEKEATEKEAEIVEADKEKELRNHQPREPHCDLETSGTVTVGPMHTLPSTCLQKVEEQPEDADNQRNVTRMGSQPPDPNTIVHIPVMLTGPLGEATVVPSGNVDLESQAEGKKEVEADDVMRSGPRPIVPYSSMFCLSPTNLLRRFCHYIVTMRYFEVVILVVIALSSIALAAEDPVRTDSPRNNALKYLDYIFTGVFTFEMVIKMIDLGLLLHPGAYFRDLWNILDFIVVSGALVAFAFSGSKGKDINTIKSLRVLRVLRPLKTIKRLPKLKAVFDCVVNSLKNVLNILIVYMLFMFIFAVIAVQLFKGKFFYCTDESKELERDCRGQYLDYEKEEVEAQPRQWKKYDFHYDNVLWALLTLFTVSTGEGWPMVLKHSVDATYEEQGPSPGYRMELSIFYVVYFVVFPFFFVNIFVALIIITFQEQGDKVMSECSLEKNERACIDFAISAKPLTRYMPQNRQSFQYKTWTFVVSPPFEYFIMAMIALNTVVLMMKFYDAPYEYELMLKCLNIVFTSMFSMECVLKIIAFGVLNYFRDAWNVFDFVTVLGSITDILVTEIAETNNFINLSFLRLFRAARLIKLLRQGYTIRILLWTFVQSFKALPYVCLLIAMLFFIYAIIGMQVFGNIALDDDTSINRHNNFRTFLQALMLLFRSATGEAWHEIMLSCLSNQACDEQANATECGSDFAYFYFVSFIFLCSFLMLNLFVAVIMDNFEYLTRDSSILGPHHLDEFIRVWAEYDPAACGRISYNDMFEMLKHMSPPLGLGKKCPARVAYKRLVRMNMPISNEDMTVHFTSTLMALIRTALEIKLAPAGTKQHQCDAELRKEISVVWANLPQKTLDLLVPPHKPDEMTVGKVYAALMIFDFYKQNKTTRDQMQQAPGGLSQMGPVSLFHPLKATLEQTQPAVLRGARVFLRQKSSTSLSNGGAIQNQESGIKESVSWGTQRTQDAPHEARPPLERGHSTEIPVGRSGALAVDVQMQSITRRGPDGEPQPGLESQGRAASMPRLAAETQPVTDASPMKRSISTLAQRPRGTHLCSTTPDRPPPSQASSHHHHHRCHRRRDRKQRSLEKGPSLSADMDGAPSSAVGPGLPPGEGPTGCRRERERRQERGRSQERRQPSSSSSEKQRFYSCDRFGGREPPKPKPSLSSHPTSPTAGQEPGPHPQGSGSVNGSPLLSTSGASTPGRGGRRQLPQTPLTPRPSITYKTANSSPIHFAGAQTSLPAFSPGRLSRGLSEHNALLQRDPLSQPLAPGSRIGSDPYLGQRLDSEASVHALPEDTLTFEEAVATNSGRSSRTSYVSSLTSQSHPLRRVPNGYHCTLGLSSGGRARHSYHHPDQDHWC
# Sequence of Voltage-gated N-type calcium channel alpha-1B subunit/Amyloid beta A4 precursor protein-binding family A member 1 (Q02410 whole entry): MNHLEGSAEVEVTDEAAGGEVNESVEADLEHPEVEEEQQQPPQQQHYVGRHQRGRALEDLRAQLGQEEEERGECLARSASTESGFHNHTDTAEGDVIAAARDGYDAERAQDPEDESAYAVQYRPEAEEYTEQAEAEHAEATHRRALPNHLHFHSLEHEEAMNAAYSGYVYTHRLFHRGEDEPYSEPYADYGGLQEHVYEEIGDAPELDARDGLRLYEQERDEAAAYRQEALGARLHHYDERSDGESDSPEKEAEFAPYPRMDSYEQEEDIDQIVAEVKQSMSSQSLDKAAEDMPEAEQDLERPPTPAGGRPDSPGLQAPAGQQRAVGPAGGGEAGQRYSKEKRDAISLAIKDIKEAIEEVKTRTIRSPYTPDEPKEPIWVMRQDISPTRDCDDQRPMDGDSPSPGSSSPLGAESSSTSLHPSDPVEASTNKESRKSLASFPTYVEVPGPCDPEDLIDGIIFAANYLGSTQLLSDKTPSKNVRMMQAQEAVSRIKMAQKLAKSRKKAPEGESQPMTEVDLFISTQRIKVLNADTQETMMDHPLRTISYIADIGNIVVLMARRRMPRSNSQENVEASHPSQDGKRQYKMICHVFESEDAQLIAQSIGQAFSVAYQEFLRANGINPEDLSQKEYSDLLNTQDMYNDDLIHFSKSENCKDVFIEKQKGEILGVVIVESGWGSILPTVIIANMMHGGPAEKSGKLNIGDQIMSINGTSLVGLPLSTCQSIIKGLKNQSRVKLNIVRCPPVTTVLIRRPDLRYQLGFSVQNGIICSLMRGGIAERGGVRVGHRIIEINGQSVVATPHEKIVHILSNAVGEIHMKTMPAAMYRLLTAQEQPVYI
# Sequence of Cytochrome P450 2C9 (P11712 whole entry): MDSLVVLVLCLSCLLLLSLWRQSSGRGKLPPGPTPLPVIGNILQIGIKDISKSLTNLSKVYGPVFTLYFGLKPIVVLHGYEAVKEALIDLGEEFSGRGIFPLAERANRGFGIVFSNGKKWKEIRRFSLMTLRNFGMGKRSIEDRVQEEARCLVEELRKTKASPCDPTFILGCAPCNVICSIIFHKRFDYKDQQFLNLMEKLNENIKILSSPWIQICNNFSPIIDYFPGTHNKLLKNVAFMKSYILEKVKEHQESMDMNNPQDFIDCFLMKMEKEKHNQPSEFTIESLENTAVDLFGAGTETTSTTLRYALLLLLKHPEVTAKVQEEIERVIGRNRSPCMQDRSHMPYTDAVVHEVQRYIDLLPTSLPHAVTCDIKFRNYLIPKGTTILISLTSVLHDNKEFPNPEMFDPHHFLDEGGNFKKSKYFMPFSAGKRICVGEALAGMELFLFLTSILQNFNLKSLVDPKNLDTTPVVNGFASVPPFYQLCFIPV
compound,measurement,setting,value
O=C(NCCCO)c1cc(-c2ccco2)nc2ccccc12,IC50,[1],> 56.8 µM (inactive)
COc1ccc(-c2[nH]ncc2/C=C(/C#N)C(=O)NC2CCCCCC2)cc1,Absolute IC50 (XBP1),[2],10 µM
same,EC50,[3],12.6 µM (active)
same,EC50,[4],11.3 µM (active)
NCCC[C@@H](CC(=O)N[C@@H]1CCCC[C@H]1C(=O)N[C@H](CC(=O)N[C@@H](CCC(=O)O)CC(=O)O)Cc1c[nH]c2ccccc12)NC(=O)C[C@H](CO)NC(=O)[C@@H]1CNCC[C@H]1N,AC50,[5],39.8 µM (inconclusive)
same,AC50,[6],12.6 µM (inconclusive)
COc1cc2c(cc1OC)C(C)N(C(=O)c1cc3c(s1)-c1ccccc1OC3)CC2 (centres undefined),CC50,[7],27.4 µM (active)
same,EC50,[8],> 85.3 µM (inactive)
same,EC50,[9],> 85.3 µM (inactive)
